Source: PMC8344761 (Journal of Enzyme Inhibition and Medicinal Chemistry, 2021)

Key:
[1] = biological target: T1, A-Raf (Homo sapiens, UniProt P10398); assay: Raf kinase assay (Kinase HotSpot, Reaction Biology Corp.); format: biochemical; conditions: fixed concentration 1 μM; mean of two independent experiments
T1 sequence (P10398 1-606): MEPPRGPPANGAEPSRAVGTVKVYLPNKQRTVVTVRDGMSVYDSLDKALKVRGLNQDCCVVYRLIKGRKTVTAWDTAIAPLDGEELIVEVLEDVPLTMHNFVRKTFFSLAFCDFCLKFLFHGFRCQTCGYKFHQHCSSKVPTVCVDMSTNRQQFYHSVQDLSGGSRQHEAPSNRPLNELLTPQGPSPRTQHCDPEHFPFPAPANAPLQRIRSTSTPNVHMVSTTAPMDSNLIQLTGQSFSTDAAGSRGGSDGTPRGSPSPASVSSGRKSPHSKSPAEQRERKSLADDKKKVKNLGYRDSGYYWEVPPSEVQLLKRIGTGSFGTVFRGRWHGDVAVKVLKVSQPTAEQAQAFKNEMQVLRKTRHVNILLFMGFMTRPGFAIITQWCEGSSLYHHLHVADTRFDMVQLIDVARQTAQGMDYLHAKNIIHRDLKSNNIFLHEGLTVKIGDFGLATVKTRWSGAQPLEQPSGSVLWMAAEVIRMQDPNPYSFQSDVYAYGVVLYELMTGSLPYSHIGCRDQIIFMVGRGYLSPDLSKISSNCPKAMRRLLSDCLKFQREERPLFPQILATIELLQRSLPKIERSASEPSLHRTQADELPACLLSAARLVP
Description: Compounds were delivered into each Raf reaction, followed ∼20 min later by addition of a mixture of ATP and [γ-^33P-ATP] (specific activity approx. 500 cpm/pmol, concentration as required) to a final concentration of 10 µM. […] Then, the reaction was spotted onto a P30 filtermat, and unbound phosphate was removed by washing three times for 5 min in 75 mM phosphoric acid and once in methanol prior to drying and scintillation counting. […] IC50 values and curve fits were obtained using Prism (GraphPad Software, La Jolla, CA).

[2] = biological target: B-Raf (Homo sapiens, UniProt P15056); assay: as above; format: biochemical; conditions: fixed concentration 1 μM; mean of two independent experiments
Description: (§1) Compounds were delivered into each Raf reaction, followed ∼20 min later by addition of a mixture of ATP and [γ-^33P-ATP] (specific activity approx. 500 cpm/pmol, concentration as required) to a final concentration of 10 µM. After incubation for 40 min at 25 °C, the reaction was stopped by the addition of a 3% phosphoric acid solution. Then, the reaction was spotted onto a P30 filtermat, and unbound phosphate was removed by washing three times for 5 min in 75 mM phosphoric acid and once in methanol prior to drying and scintillation counting. […] IC50 values and curve fits were obtained using Prism (GraphPad Software, La Jolla, CA).

[3] = biological target: B-Raf (V600E) (Homo sapiens, UniProt P15056, V600E); assay: as above; format: biochemical; conditions: fixed concentration 1 μM; mean of two independent experiments; B-Raf (V599E)
Description: as §1

[4] = biological target: C-Raf (Homo sapiens, UniProt P04049); assay: as above; format: biochemical; conditions: fixed concentration 1 μM; mean of two independent experiments; read-out: Inhibition (%) C-Raf
Description: as §1

Sequence of B-Raf (V600E) (P15056 whole entry V600E): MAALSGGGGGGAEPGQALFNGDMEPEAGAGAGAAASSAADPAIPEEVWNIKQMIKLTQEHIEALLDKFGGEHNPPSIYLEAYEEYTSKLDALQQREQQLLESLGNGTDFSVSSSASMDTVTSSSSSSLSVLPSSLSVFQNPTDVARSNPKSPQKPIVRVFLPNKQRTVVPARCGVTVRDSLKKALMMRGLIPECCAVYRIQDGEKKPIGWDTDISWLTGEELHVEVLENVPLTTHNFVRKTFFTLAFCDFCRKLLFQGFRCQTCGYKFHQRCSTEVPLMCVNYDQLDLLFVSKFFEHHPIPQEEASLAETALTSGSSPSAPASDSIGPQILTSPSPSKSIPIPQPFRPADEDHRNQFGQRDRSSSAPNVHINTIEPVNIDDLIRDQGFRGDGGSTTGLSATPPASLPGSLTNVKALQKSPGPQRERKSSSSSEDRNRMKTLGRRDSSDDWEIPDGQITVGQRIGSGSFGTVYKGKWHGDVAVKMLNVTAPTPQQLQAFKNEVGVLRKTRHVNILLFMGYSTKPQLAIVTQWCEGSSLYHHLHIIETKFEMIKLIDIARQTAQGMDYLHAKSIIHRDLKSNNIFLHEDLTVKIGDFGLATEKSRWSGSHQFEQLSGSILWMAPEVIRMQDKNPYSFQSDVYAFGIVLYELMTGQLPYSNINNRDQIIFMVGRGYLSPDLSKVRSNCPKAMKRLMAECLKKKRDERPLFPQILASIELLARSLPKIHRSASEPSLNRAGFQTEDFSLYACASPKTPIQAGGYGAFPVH
Sequence of B-Raf (P15056 whole entry): as the sequence (P15056 whole entry V600E) above, with E600V counted along it
Sequence of C-Raf (P04049 whole entry): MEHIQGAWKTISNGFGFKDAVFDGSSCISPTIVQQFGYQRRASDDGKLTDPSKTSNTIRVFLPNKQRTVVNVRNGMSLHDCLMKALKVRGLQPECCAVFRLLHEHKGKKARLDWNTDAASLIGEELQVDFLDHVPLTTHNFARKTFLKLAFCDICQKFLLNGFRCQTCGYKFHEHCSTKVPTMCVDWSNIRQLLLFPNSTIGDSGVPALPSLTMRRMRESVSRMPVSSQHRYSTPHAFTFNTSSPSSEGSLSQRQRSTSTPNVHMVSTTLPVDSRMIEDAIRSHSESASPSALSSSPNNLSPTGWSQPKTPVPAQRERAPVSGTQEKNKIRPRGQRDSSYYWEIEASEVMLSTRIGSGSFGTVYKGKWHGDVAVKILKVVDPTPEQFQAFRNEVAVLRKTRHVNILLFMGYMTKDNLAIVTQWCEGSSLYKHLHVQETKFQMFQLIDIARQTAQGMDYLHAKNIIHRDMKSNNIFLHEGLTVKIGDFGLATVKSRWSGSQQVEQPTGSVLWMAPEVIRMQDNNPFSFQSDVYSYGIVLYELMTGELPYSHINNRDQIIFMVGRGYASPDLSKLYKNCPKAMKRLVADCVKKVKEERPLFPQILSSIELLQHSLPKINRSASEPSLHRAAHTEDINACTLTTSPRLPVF

| SMILES | inhibition at 1 µM [1] | inhibition at 1 µM [2] | inhibition at 1 µM [3] | inhibition at 1 µM [4] | melting point |
| --- | --- | --- | --- | --- | --- |
| CNC(=O)c1cc(Oc2c(C)nc(NC(=O)Nc3ccc([N+](=O)[O-])cc3)c(C)c2C)ccn1 [Compound 10, N-Methyl-4-((2,4,5-trimethyl-6-(3-(4-nitrophenyl)ureido)pyridin-3-yl)oxy)picolinamide] | 61.5% | 60.4% | 74.7% | 83.1% | 262 °C |
| CNC(=O)c1cc(Oc2c(C)nc(NC(=O)Nc3c(C)cccc3C(C)(C)C)c(C)c2C)ccn1 [Compound 16, 4-((6-(3-(2-(Tert-Butyl)-6-methylphenyl)ureido)-2,4,5-trimethylpyridin-3-yl)oxy)-N-methylpicolinamide] | 8.6% | -7.1% | 7.1% | -6.4% | 206 °C |
| CNC(=O)c1cc(Oc2c(C)nc(NC(=O)NC(=O)c3ccccc3)c(C)c2C)ccn1 [Compound 21, 4-((6-(3-Benzoylureido)-2,4,5-trimethylpyridin-3-yl)oxy)-N-methylpicolinamide] | 18.9% | 8.6% | 26.7% | 35.2% | 177 °C |
| CNC(=O)c1cc(Oc2c(C)nc(NC(=O)Nc3cccc4ccccc34)c(C)c2C)ccn1 [Compound 17, N-Methyl-4-((2,4,5-trimethyl-6-(3-(naphthalen-1-yl)ureido)pyridin-3-yl)oxy)picolinamide] | 10.2% | -6.8% | 10.1% | 7.1% | 266 °C |
| CNC(=O)c1cc(Oc2c(C)nc(NC(=O)NCc3ccccc3)c(C)c2C)ccn1 [Compound 18, 4-((6-(3-Benzylureido)-2,4,5-trimethylpyridin-3-yl)oxy)-N-methylpicolinamide] | 7.8% | -14.5% | 13.3% |  | 195 °C |
| CNC(=O)c1cc(Oc2c(C)nc(NC(=O)NS(=O)(=O)c3ccc(C)cc3)c(C)c2C)ccn1 [Compound 22, N-Methyl-4-((2,4,5-trimethyl-6-(3-tosylureido)pyridin-3-yl)oxy)picolinamide] | 9.4% |  | 2.6% | 5.7% | 187 °C |
| CCCNC(=O)Nc1nc(C)c(Oc2ccnc(C(=O)NC)c2)c(C)c1C [Compound 19, N-Methyl-4-((2,4,5-trimethyl-6-(3-propylureido)pyridin-3-yl)oxy)picolinamide] | -5.1% | -9.2% |  | 1.7% | 207 °C |

Further lines, results first:

| inhibition at 1 µM [1] | inhibition at 1 µM [2] | inhibition at 1 µM [3] | inhibition at 1 µM [4] | melting point | SMILES |
| --- | --- | --- | --- | --- | --- |
| 33.6% | 43.2% | 39% | 76.1% | 188 °C | CNC(=O)c1cc(Oc2c(C)nc(NC(=O)Nc3ccc(C(C)C)cc3)c(C)c2C)ccn1 [Compound 15, 4-((6-(3-(4-Isopropylphenyl)ureido)-2,4,5-trimethylpyridin-3-yl)oxy)-N-methylpicolinamide] |
| 70.2% | 63% | 69.4% | 83.1% | 248 °C | CNC(=O)c1cc(Oc2c(C)nc(NC(=O)Nc3ccc(Cl)cc3)c(C)c2C)ccn1 [Compound 5, 4-((6–(3-(4-Chlorophenyl)ureido)-2,4,5-trimethylpyridin-3-yl)oxy)-N-methylpicolinamide] |
| 7.9% |  | 8.7% | -7.7% | 242 °C | Cc1nc(NC(=O)Nc2ccc(Cl)c(C(F)(F)F)c2)c(C)c(C)c1O [Compound 25, 1-(4-Chloro-3-(trifluoromethyl)phenyl)-3-(5-hydroxy-3,4,6-trimethylpyridin-2-yl)urea] |
